The results in this text go back to publication PMC10788856, “Mimicking Nonribosomal Peptides from the Marine Actinomycete Streptomyces sp. H-KF8 Leads to Antimicrobial Peptides” (ACS Infectious Diseases, 2023).

Each structure is given as a SMILES string. Numbered stars: 1 amine (or outer) side, 2 acyl side, 3 side chain; on linkers, the order of the positions; unused ones are H or OH. Bridge positions count the residues as written; N and C are the ends. Square brackets hold non-standard residues; d marks the D form. Peptide text beside a SMILES is read from it. Tyr(3-NO2) = N[C@@H](Cc1ccc(O)c([N+](=O)[O-])c1)C(=O)O; Glutaryl = O=C(CCCC(=O)[*:2])[*:1]; Orn = NCCC[C@H](N)C(=O)O

This assay concerns Escherichia coli (CCUG 31246). Kind of assay: Minimum microbicidal concentration (MMC99) assay. The format is cell-based, E. coli. Particulars: BHI diluted 1/100. As for the experimental part: The microbicidal activity of the synthetic peptides was assessed against S. aureus (ATCC 12600; American Type Culture Collection, Manassas, VA, USA), Escherichia coli (CCUG 31246; Culture Collection, University of Gothenburg, Sweden), and Candida albicans (ATCC 64549/CCUG31028) using an MMC assay, as described previously by […] et al. (specific details in Supporting Information, pages 10, 11).[28] The assay was performed in BHI diluted 1/100 (BHI100). […] page 11: Table S5. Energy and structural ensembles of synthesized peptides. […] Energy -3887.06 -3620.88 -4968.42 -2163.76 -2646.75 Van der Waals solv. Energy 117.32 91.57 183.20 -88.88 -139.89 Mean RMSD* (Å), mean±SD […] Heavy atoms 1.87 ± 0.33 1.77 ± 0.50 0.98 ± 0.34 0.63 ±0.22 2.88 ±0.62 MMC99 activity including salt stability measurements Antimicrobial activity of L2 and L3 in the presence of NaCl. 1Table S6. Peptide MMC99 (μg/ml) sin NaCl S. aureus E.coli C. albicans (mM) 2[…] 0 50 25 25 85 - - - - - - >200 >200 >200 150 - - - - - - >200 >200 >200 3L 0 12.5 12.5 25 12,5 6.3 6.3 12.5 6.3 12.5 […] 150 >400 >400 (-)2 >400 >400 >400 >200 >200 >200 […] or 150 mM NaCl. L2 and L3 were serially diluted in twofold steps with a starting dilution of 200 μg/ml […] All sample dilutions were run in duplicates (L2) or triplicates (L3). 2 The growth of S. aureus at 24 h in BHI 100 with 85 or 150 mM NaCl was reduced. Minimum microbicidal concentration (MMC), killing 99% of the inoculum. All microorganisms were cultured in brain-heart infusion broth (BHI) overnight on a shaker at 37°C. The cultures were thereafter transferred to fresh BHI broth in volumes constituting 10% of total, and incubated for an additional 2 h to reach exponential growth phase. The bacterial cultures were washed once in BHI diluted 1/100 (BHI100), followed by resuspension in BHI100. The cell suspensions were diluted to a density of […] (bacteria) or 2x10^7 CFU/ml (yeast), as estimated by optical density measurement at 590 nm. […] Serum stability Figure S 133. […] A) peptide L2 B) peptide L3. C) peptide L3-K. D) peptide C3.

In the case of `CC(C)[C@H]1NC(=O)[C@H](CCCN)NC(=O)[C@H]([C@@H](C)O)NC(=O)[C@H](CCCN)NC(=O)[C@H](Cc2c[nH]c3ccccc23)NC(=O)[C@@H](C)NC(=O)[C@@H](C(C)C)NC(=O)[C@@H](C)NC(=O)[C@H](Cc2c[nH]c3ccccc23)NC(=O)CCCC(=O)NCCCC[C@@H](C(N)=O)NC(=O)[C@H](Cc2ccc(O)c([N+](=O)[O-])c2)NC1=O` [C3] (W[dA][dV][dA]W[Orn]T[Orn][dV][Tyr(3-NO2)]K-NH2; linker N-11 via Glutaryl), the “active concentrations against E. coli (MMC99, text)” value was at least 100 µg/mL. Further, where the note is “37 °C, 2 h, median, n = 3”, the “E. coli MMC99 2 h” value is over 100 µg/mL. In addition, the “E. coli MMC99 6 h” value (37 °C, 6 h, median, n = 3) is over 100 µg/mL. The “E. coli MMC99 24 h” value (37 °C, 24 h, median, n = 3) is 100 µg/mL.
